Series [1] can be described thus: Oral bioavailability in Sprague-Dawley rat at 10 mg/kg by LC-MS/MS analysis. The format is ADME, organism-based. The following applies: in vivo.
Series [2] concerns the target T1, Estrogen receptor (Homo sapiens) (UniProt P03372).
T1 sequence (whole entry): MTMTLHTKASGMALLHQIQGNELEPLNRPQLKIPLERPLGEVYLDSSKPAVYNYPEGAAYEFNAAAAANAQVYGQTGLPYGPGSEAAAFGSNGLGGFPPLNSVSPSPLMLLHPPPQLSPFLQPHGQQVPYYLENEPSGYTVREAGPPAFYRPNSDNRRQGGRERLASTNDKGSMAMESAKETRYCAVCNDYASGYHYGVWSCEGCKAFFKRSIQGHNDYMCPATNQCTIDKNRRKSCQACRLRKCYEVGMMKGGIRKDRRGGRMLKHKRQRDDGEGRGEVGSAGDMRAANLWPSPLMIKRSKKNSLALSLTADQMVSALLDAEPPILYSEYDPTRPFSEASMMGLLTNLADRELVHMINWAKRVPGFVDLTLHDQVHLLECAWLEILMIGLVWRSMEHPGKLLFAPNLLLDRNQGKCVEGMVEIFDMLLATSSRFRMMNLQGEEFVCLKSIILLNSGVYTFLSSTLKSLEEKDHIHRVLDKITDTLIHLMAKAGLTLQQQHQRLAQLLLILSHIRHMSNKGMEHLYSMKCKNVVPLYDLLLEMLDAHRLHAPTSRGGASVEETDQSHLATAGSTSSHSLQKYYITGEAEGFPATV
The series can be described thus: Binding affinity to purified human ERalpha LBD incubated for 2 hrs by fluorescence tracer based competitive fluorometric binding assay relative to estradiol.

Series [3] can be described thus: Cmax in Sprague-Dawley rat at 10 mg/kg, po by LC-MS/MS analysis. The following applies: in vivo. The format is ADME, organism-based. Set-up: dose 10 mg/kg, route oral.
Series [4] in a line: Clearance in Sprague-Dawley rat at 3 mg/kg, iv by LC-MS/MS analysis. In kind it is ADME, organism-based. The following applies: in vivo.
The target in series [5] is T1, Estrogen receptor (Homo sapiens). The series can be described thus: Induction of ERalpha protein degradation in human MCF7 cells assessed as ERalpha protein level at 10 uM incubated for 20 hrs by Western blot analysis relative to control. The format is cell-based.
Series [6] can be described thus: Half life in Sprague-Dawley rat at 10 mg/kg, po by LC-MS/MS analysis. In kind it is ADME, organism-based. The note with it: in vivo.
The nature of series [7]: Cmax in Sprague-Dawley rat at 3 mg/kg, iv by LC-MS/MS analysis. The format is ADME, organism-based. Set-up: dose 3 mg/kg, route intravenous. The following applies: in vivo.
The target in series [8] is Estrogen receptor beta (Homo sapiens) (UniProt Q92731). The series can be described thus: Binding affinity to ERbeta (unknown origin) incubated for 2 hrs by fluorescence tracer based competitive fluorometric binding assay relative to estradiol.
Series [9] can be described thus: Volume of distribution at steady state in Sprague-Dawley rat at 3 mg/kg, iv by LC-MS/MS analysis. The format is ADME, organism-based. The following applies: in vivo, read-out: Vdss.
Series [10] addresses T1, Estrogen receptor (Homo sapiens). The series can be described thus: Induction of ERalpha protein degradation in human MCF7 cells at 0.5 uM incubated for 20 hrs by Western blot analysis. In kind it is cell-based. On the technique in general: Immunoblotting shows a protein as a band on a membrane.
Series [11] has as its system MCF7. The series can be described thus: cells. The note with it: Homo sapiens, MCF7, 72 h.
Description: Antiproliferative activity against human MCF7 cells incubated for 72 hrs by MTT assay
Series [12] is described as follows: AUC in Sprague-Dawley rat at 10 mg/kg, po by LC-MS/MS analysis. In kind it is ADME, organism-based. The following applies: in vivo.
The nature of series [13]: AUC in Sprague-Dawley rat at 3 mg/kg, iv by LC-MS/MS analysis. The note with it: in vivo. The format is ADME, organism-based.
Series [14] is described as follows: Half life in Sprague-Dawley rat at 3 mg/kg, iv by LC-MS/MS analysis. The format is ADME, organism-based. The note with it: in vivo.
Series [15] addresses T1, Estrogen receptor (Homo sapiens). The series can be described thus: Induction of ERalpha protein degradation in human MCF7 cells at 1 uM incubated for 20 hrs by Western blot analysis relative to control. The format is cell-based.
The target is the same in series [16]. The series can be described thus: Induction of ERalpha protein degradation in human MCF7 cells at 5 uM incubated for 20 hrs by Western blot analysis relative to control. In kind it is cell-based.

Active and inactive are the calls of the source. Some results are limits rather than exact numbers.

Sequence of Estrogen receptor beta (Homo sapiens) (Q92731 whole entry): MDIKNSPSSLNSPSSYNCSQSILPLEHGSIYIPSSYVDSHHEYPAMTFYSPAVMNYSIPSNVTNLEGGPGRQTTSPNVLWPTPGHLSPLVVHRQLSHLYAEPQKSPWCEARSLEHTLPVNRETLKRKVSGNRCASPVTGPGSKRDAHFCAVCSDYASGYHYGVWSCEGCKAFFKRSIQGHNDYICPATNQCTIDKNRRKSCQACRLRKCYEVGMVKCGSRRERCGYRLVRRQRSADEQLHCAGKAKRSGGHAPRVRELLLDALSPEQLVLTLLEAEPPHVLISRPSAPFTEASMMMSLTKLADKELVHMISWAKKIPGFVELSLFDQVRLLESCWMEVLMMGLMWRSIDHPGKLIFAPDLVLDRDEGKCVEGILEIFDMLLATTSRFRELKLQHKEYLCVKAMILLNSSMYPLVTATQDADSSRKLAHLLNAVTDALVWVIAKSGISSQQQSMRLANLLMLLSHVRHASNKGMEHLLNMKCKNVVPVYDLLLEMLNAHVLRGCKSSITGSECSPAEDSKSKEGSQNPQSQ

The term bioavailability denotes dose-corrected exposure relative to a reference, in per cent. As usually defined, the Cmax is the maximum level reached in the sampled fluid or tissue. One may read the clearance as the volume of plasma or blood freed of the substance per unit of time. High values mean a high capacity for elimination, low ones a low capacity for elimination. The half-life is the time needed for the level to fall by half in the phase considered. A low value points to rapid decline. Broadly, the IC50 is the midpoint of a concentration-inhibition curve. Low readings indicate greater potency in that assay, high ones weaker potency in that assay. In general, AUC refers to the area under the concentration-time curve, a measure of exposure. A high value points to high exposure. `COc1ccc(N(CC(F)(F)F)S(=O)(=O)[C@H]2C[C@H]3O[C@@H]2C(c2ccc(OCCN4CCCC4)cc2)=C3c2ccc(O)cc2)cc1` (relative stereo): the bioavailability in series [1] is 9.2%. Further, the RBA came out at 2.12% in series [2] and 1.81% in [8]. Further, the Cmax in series [3] was 50 ng/mL; in [7], 1000 ng/mL. In series [4], this compound had a clearance of 46 mL/min/kg. The Activity in series [5] is 1%; in series [15], 100%. The half-life in series [6] was 3.7 h; in series [14], 6.2 h. The Vd in series [9] came to 9.55 L/kg. Besides, the outcome in series [10] was Active. Further, the half-maximal inhibitory concentration (IC50) in [11] came out at 6.1 µM. For the same compound, the AUC in [12] turned out to be 330 ng·h/mL; in series [13], 1080 ng·h/mL.
As to `CCN(c1ccccc1)S(=O)(=O)[C@H]1C[C@H]2O[C@@H]1C(c1ccc(OCC(O)CO)cc1)=C2c1ccc(O)cc1` (relative stereo), the RBA in series [2] worked out at 0.26%; in [8] it was 0.28%. Also, the Activity in [5] turned out to be 117%. Further, the midpoint of inhibition in series [11], the IC50, lay at 33.6 µM.
Taken in the same sequence, the figures for `CCN(c1ccccc1)S(=O)(=O)[C@H]1C[C@H]2O[C@@H]1C(c1ccc(OCCCCCCCC(=O)O)cc1)=C2c1ccc(O)cc1` (relative stereo) were 1.2%, 0.4%, 79% and 27.4 µM.
With `CCN(c1ccc(OCCCCCCC(=O)O)cc1)S(=O)(=O)[C@H]1C[C@H]2O[C@@H]1C(c1ccc(O)cc1)=C2c1ccc(O)cc1` (relative stereo), the RBA in series [2] is 1.22%; in [8] it was 0.41%. The Activity in series [5] worked out at 92%. Besides, the IC50 in series [11] was > 50 µM.
Taken in the same sequence, the figures for `CCN(c1ccccc1)S(=O)(=O)[C@H]1C[C@H]2O[C@@H]1C(c1ccc(OCCN3CCCCC3)cc1)=C2c1ccc(O)cc1` (relative stereo) were 2.51%, 0.81%, 95% and 12.9 µM.
In turn, `CC/C(=C(\c1ccc(O)cc1)c1ccc(OCCN(C)C)cc1)c1ccccc1` [AFIMOXIFENE] had an IC50 in [11] of 10.1 µM.
`COc1ccc(N(CC(F)(F)F)S(=O)(=O)[C@H]2C[C@H]3O[C@@H]2C(c2ccc(O)cc2)=C3c2ccc(O)cc2)cc1` returned an Activity in [16] of 100%.
As to `CCN(c1ccccc1)S(=O)(=O)[C@H]1C[C@H]2O[C@@H]1C(c1ccc(OCCCCCCCCCCC(=O)O)cc1)=C2c1ccc(O)cc1` (relative stereo), the figures for the RBA in [2] and in series [8] were 0.93% and 0.13%, respectively. In series [5], the Activity turned out to be 51%. For the same compound, the 50% inhibitory concentration (IC50) in series [11] was determined as 10.3 µM.
As for `CCN(c1ccc(OCC(O)CO)cc1)S(=O)(=O)[C@H]1C[C@H]2O[C@@H]1C(c1ccc(O)cc1)=C2c1ccc(O)cc1` (relative stereo), the RBA in [2] was 0.46%; in series [8], 0.53%. In addition, in series [5], the Activity is 63%. The IC50 in [11] came to 32.3 µM.
Taken in the same sequence, the figures for `CCN(c1ccc(OCCCCCCCCCCC(=O)O)cc1)S(=O)(=O)[C@H]1C[C@H]2O[C@@H]1C(c1ccc(O)cc1)=C2c1ccc(O)cc1` (relative stereo) were 0.57%, < 0.01%, 29% and 18.4 µM.
Taken in the same sequence, the figures for `COc1ccc(N(CC(F)(F)F)S(=O)(=O)[C@H]2C[C@H]3O[C@@H]2C(c2ccc(OCCCCCCCCCCC(=O)O)cc2)=C3c2ccc(O)cc2)cc1` (relative stereo) were 0.06%, 0.7%, 83% and 14.3 µM.
Taken in the same sequence, the figures for `CN(c1ccccc1)S(=O)(=O)[C@H]1C[C@H]2O[C@@H]1C(c1ccc(OCCN3CCCCC3)cc1)=C2c1ccc(O)cc1` (relative stereo) were 0.95%, 0.79%, 98% and 15.2 µM.
Regarding `O=S(=O)([C@H]1C[C@H]2O[C@@H]1C(c1ccc(OCC(O)CO)cc1)=C2c1ccc(O)cc1)N(CC(F)(F)F)c1ccc(Cl)cc1` (relative stereo), the RBA in series [2] is 1.62%; in series [8] it was < 0.01%. Moreover, the Activity in series [5] stood at 38%. For the same compound, the half-maximal inhibitory concentration (IC50) in series [11] was found to be 16.8 µM.
Taken in the same sequence, the figures for `COc1ccc(N(CC(F)(F)F)S(=O)(=O)[C@H]2C[C@H]3O[C@@H]2C(c2ccc(OCCCCCCCC(=O)O)cc2)=C3c2ccc(O)cc2)cc1` (relative stereo) were 0.07%, < 0.01%, 42% and 40.3 µM.
Turning to `COc1ccc(N(CC(F)(F)F)S(=O)(=O)[C@H]2C[C@H]3O[C@@H]2C(c2ccc(OCCCCCCC(=O)O)cc2)=C3c2ccc(O)cc2)cc1` (relative stereo), the RBA stood at 1.82% in series [2] and 0.13% in series [8]. In addition, the Activity in series [5] amounted to 32%. Moreover, it took 15.9 µM to reach half-maximal inhibition in [11] (IC50).
For `CCN(c1ccc(OCCCCCCCC(=O)O)cc1)S(=O)(=O)[C@H]1C[C@H]2O[C@@H]1C(c1ccc(O)cc1)=C2c1ccc(O)cc1` (relative stereo), the RBA in series [2] was found to be 3.21%; in series [8] it was 0.42%. Also, in series [5], the Activity was found to be 78%. The same compound showed an IC50 in series [11] of 24.9 µM.
Taken in the same sequence, the figures for `CCN(c1ccc(OCCN2CCCCC2)cc1)S(=O)(=O)[C@H]1C[C@H]2O[C@@H]1C(c1ccc(O)cc1)=C2c1ccc(O)cc1` (relative stereo) were 0.58%, 0.25%, 89% and 5.4 µM.
